Results: ChEMBL document CHEMBL3588834, “Towards bacterial adhesion-based therapeutics and detection methods” (Medchemcomm, 2014)
Values belong to the molecule of their own block, whether it stands above or below them.

Key:
[1] = tested on: Escherichia coli; experiment: Antimicrobial activity against uropathogenic Escherichia coli infected in chronic mouse cystitis model assessed as reduction in bacterial levels at 100 mg/kg, po administered as single dose relative to untreated control; format: functional
[2] = Stability in mouse urinary bladder assessed as unchanged drug level at 100 mg/kg, po; format: ADME, organism-based; conditions: in vivo
[3] = tested on: Mus musculus; experiment: Time duration maintaining effective drug urine level in mouse at 10 mg/kg, ip; format: ADME, organism-based; conditions: in vivo
[4] = tested on: Mus musculus; experiment: Time duration maintaining >10 mM urine level in mouse at 50 mg/kg, po; format: ADME, organism-based; conditions: in vivo
[5] = Binding affinity to Pseudomonas aeruginosa LecA
[6] = Binding affinity to Pseudomonas aeruginosa LecB
[7] = Inhibition of Pseudomonas aeruginosa LecA by ELISA method
[8] = tested on: Streptococcus suis; experiment: […] of Streptococcus suis by hemagglutination inhibition assay; format: functional, organism-based

Stability [2]: > 95% | Time [3]: 8 h
SMILES: CNC(=O)c1cc(C(=O)NC)cc(-c2ccc(O[C@H]3O[C@H](CO)[C@@H](O)[C@H](O)[C@@H]3O)cc2)c1
fold change (FC) [1]: 3

Time [4]: 6 h
SMILES: CNC(=O)c1cc(C(=O)NC)cc(-c2ccc(O[C@H]3O[C@H](CO)[C@@H](O)[C@H](O)[C@@H]3O)c(C)c2)c1

Kd [5]: 4.2 µM
SMILES: CC(C)C[C@H](NC(=O)[C@@H]1CCCN1C(=O)[C@H](CCCCN)NC(=O)c1ccc(O[C@@H]2O[C@H](CO)[C@H](O)[C@H](O)[C@H]2O)cc1)C(N)=O

Kd [5]: 5.8 µM
SMILES: [N-]=[N+]=NCC(=O)Nc1ccc(O[C@@H]2O[C@H](CO)[C@H](O)[C@H](O)[C@H]2O)cc1

Kd [5]: 4.2 µM
SMILES: OC[C@H]1O[C@@H](Oc2ccc3ccccc3c2)[C@H](O)[C@@H](O)[C@H]1O

Kd [6]: 0.29 µM
SMILES: COC(=O)c1cn([C@@H]2O[C@H](CO)[C@@H](O[C@@H]3O[C@H](C)[C@@H](O)[C@@H](O)[C@@H]3O)[C@H](O)[C@H]2NC(C)=O)nn1

Kd [6]: 3.3 µM
SMILES: CO[C@H]1O[C@H](CNS(=O)(=O)c2c(C)cc(C)cc2C)[C@@H](O)[C@H](O)[C@@H]1O

Kd [5]: 0.09 µM
SMILES: CC(C)(C)c1cc2c(Oc3cn(CC(=O)NCCOCCO[C@@H]4O[C@H](CO)[C@H](O)[C@H](O)[C@H]4O)nn3)c(c1)Cc1cc(C(C)(C)C)cc(c1Oc1cn(CC(=O)NCCOCCO[C@@H]3O[C@H](CO)[C@H](O)[C@H](O)[C@H]3O)nn1)Cc1cc(C(C)(C)C)cc(c1Oc1cn(CC(=O)NCCOCCO[C@@H]3O[C@H](CO)[C@H](O)[C@H](O)[C@H]3O)nn1)Cc1cc(C(C)(C)C)cc(c1Oc1cn(CC(=O)NCCOCCO[C@@H]3O[C@H](CO)[C@H](O)[C@H](O)[C@H]3O)nn1)C2

Kd [5]: 0.079 µM
SMILES: O=C(Cn1cc(CCC(=O)N[C@H]2[C@@H]3OC[C@H]4O[C@@H](OC[C@H]5O[C@@H](OC[C@H]6O[C@@H](OC[C@@H](O3)[C@@H](O)[C@@H]2O)[C@H](NC(=O)CCc2cn(CC(=O)Nc3ccc(O[C@@H]7O[C@H](CO)[C@H](O)[C@H](O)[C@H]7O)cc3)nn2)[C@@H](O)[C@@H]6O)[C@H](NC(=O)CCc2cn(CC(=O)Nc3ccc(O[C@@H]6O[C@H](CO)[C@H](O)[C@H](O)[C@H]6O)cc3)nn2)[C@@H](O)[C@@H]5O)[C@H](NC(=O)CCc2cn(CC(=O)Nc3ccc(O[C@@H]5O[C@H](CO)[C@@H](O)[C@H](O)[C@H]5O)cc3)nn2)[C@@H](O)[C@@H]4O)nn1)Nc1ccc(O[C@@H]2O[C@H](CO)[C@@H](O)[C@H](O)[C@H]2O)cc1

IC50 [7]: 3.5 µM
SMILES: OC[C@H]1O[C@@H](OCc2cn([C@H]3[C@H](O)[C@@H](O)[C@H](n4cc([C@@H]5O[C@H](CO)[C@@H](n6cc(CO[C@@H]7O[C@H](CO)[C@H](O)[C@H](O)[C@H]7O)nn6)[C@H](O)[C@H]5O)nn4)O[C@@H]3CO)nn2)[C@H](O)[C@@H](O)[C@H]1O

IC50 [7]: 0.84 µM
SMILES: OC[C@H]1O[C@@H](OCc2cn([C@H]3[C@H](O)[C@@H](O)[C@H](c4cn([C@H]5[C@H](O)[C@@H](O)[C@H](n6cc([C@@H]7O[C@H](CO)[C@@H](n8cc([C@@H]9O[C@H](CO)[C@@H](n%10cc(CO[C@@H]%11O[C@H](CO)[C@H](O)[C@H](O)[C@H]%11O)nn%10)[C@H](O)[C@H]9O)nn8)[C@H](O)[C@H]7O)nn6)O[C@@H]5CO)nn4)O[C@@H]3CO)nn2)[C@H](O)[C@@H](O)[C@H]1O

SMILES: COc1ccc(O[C@@H]2O[C@H](CO)[C@H](O[C@H]3O[C@H](CO)[C@H](O)[C@H](NC(=O)Nc4ccccc4)[C@H]3O)[C@H](O)[C@H]2O)cc1
IC50 [8]: 0.03 µM

SMILES: COCO[C@H]1[C@@H](O[C@@H]2[C@H](O)[C@@H](O)[C@H](Oc3ccc(OC)cc3)O[C@@H]2CO)O[C@H](CO)[C@H](O)[C@@H]1O
IC50 [8]: 0.05 µM

SMILES: O=C(CCSCC(CSCCC(=O)NCCO[C@@H]1O[C@H](CO)[C@H](O[C@H]2O[C@H](CO)[C@H](O)[C@H](O)[C@H]2O)[C@H](O)[C@H]1O)(CSCCC(=O)NCCO[C@@H]1O[C@H](CO)[C@H](O[C@H]2O[C@H](CO)[C@H](O)[C@H](O)[C@H]2O)[C@H](O)[C@H]1O)CSCCC(=O)NCCO[C@@H]1O[C@H](CO)[C@H](O[C@H]2O[C@H](CO)[C@H](O)[C@H](O)[C@H]2O)[C@H](O)[C@H]1O)NCCO[C@@H]1O[C@H](CO)[C@H](O[C@H]2O[C@H](CO)[C@H](O)[C@H](O)[C@H]2O)[C@H](O)[C@H]1O
IC50 [8]: 0.002 µM

SMILES: COC(=O)c1cc(OCCNC(=O)c2cc(OCCNC(=O)COCC(=O)NCCO[C@@H]3O[C@H](CO)[C@H](O[C@H]4O[C@H](CO)[C@H](O)[C@H](O)[C@H]4O)[C@H](O)[C@H]3O)cc(OCCNC(=O)COCC(=O)NCCO[C@@H]3O[C@H](CO)[C@H](O[C@H]4O[C@H](CO)[C@H](O)[C@H](O)[C@H]4O)[C@H](O)[C@H]3O)c2)cc(OCCNC(=O)c2cc(OCCNC(=O)COCC(=O)NCCO[C@@H]3O[C@H](CO)[C@H](O[C@H]4O[C@H](CO)[C@H](O)[C@H](O)[C@H]4O)[C@H](O)[C@H]3O)cc(OCCNC(=O)COCC(=O)NCCO[C@@H]3O[C@H](CO)[C@H](O[C@H]4O[C@H](CO)[C@H](O)[C@H](O)[C@H]4O)[C@H](O)[C@H]3O)c2)c1
IC50 [8]: 0.0003 µM

SMILES: COc1ccc(O[C@@H]2O[C@H](CO)[C@H](O[C@H]3O[C@H](CO)[C@H](O)[C@H](O)[C@H]3O)[C@H](O)[C@H]2O)cc1
IC50 [8]: 0.31 µM

Kd [5]: 6.3 µM
SMILES: OC[C@H]1O[C@@H](Sc2ccc3ccccc3c2)[C@H](O)[C@@H](O)[C@H]1O

Kd [6]: 0.21 µM
SMILES: CC(=O)N[C@H]1C(O)O[C@H](CO)[C@@H](O[C@@H]2O[C@@H](C)[C@@H](O)[C@@H](O)[C@@H]2O)[C@@H]1O[C@@H]1O[C@H](CO)[C@H](O)[C@H](O)[C@H]1O (stereo partly drawn)

Kd [5]: 0.028 µM | IC50 [7]: 0.0027 µM
SMILES: OC[C@H]1O[C@@H](OCc2cn([C@H]3[C@H](O)[C@@H](O)[C@H](c4cn([C@H]5[C@H](O)[C@@H](O)[C@H](n6cc([C@@H]7O[C@H](CO)[C@@H](n8cc(CO[C@@H]9O[C@H](CO)[C@H](O)[C@H](O)[C@H]9O)nn8)[C@H](O)[C@H]7O)nn6)O[C@@H]5CO)nn4)O[C@@H]3CO)nn2)[C@H](O)[C@@H](O)[C@H]1O

Kd [5]: 87.5 µM
SMILES: O=C[C@H](O)[C@@H](O)[C@@H](O)[C@H](O)CO [GALACTOSE]
